In ChEMBL document CHEMBL1127106, “Synthesis and cytotoxic activity of () octadecylphosphodithionyl-1-myo-inositol” (1993):
Several values for one entry are separate records, joined by “and”; a condition that tells them apart may be missing. Equal values may be shown once.

How the values were obtained:
Type in all cases: functional, Homo sapiens
K562 [1] = assay: Cytotoxic activity on K-562 erythroleukemia cell line suspension in 5% foetal calf serum (FCS) at 4*10e-6 M concentration after 1 hr
K562 [2] = assay: Cytotoxic activity on K-562 erythroleukemia cell line suspension in 5% foetal calf serum (FCS) at 4*10e-6 M concentration after 24 hr
K562 [3] = assay: Cytotoxic activity on K-562 erythroleukemia cell line suspension in 5% foetal calf serum (FCS) at 4*10e-6 M concentration after 2 hr
K562 [4] = assay: Cytotoxic activity on K-562 erythroleukemia cell line suspension in 5% foetal calf serum (FCS) at 10e-3 M concentration after 1 hr
K562 [5] = assay: Cytotoxic activity on K-562 erythroleukemia cell line suspension in 5% foetal calf serum (FCS) at 10e-3 M concentration after 24 hr
K562 [6] = assay: Cytotoxic activity on K-562 erythroleukemia cell line suspension in 5% foetal calf serum (FCS) at 10e-3 M concentration after 2 hr
K562 [7] = assay: Cytotoxic activity on K-562 erythroleukemia cell line suspension in 5% foetal calf serum (FCS) at 10e-4 M concentration after 1 hr
K562 [8] = assay: Cytotoxic activity on K-562 erythroleukemia cell line suspension in 5% foetal calf serum (FCS) at 10e-4 M concentration after 24 hr
K562 [9] = assay: Cytotoxic activity on K-562 erythroleukemia cell line suspension in 5% foetal calf serum (FCS) at 10e-4 M concentration after 2 hr
K562 [10] = assay: Cytotoxic activity on K-562 erythroleukemia cell line suspension in 5% foetal calf serum (FCS) at 10e-5 M concentration after 1 hr
K562 [11] = assay: Cytotoxic activity on K-562 erythroleukemia cell line suspension in 5% foetal calf serum (FCS) at 10e-5 M concentration after 24 hr
K562 [12] = assay: Cytotoxic activity on K-562 erythroleukemia cell line suspension in 5% foetal calf serum (FCS) at 10e-5 M concentration after 2 hr
K562 [13] = assay: Cytotoxic activity on K-562 erythroleukemia cell line suspension in 5% foetal calf serum (FCS) at 10e-6 M concentration after 1 hr
K562 [14] = assay: Cytotoxic activity on K-562 erythroleukemia cell line suspension in 5% foetal calf serum (FCS) at 10e-6 M concentration after 24 hr
K562 [15] = assay: Cytotoxic activity on K-562 erythroleukemia cell line suspension in 5% foetal calf serum (FCS) at 10e-6 M concentration after 2 hr
K562 [16] = assay: Cytotoxic activity on K-562 erythroleukemia cell line suspension in 5% foetal calf serum (FCS) at 4*10e-4 M concentration after 1 hr
K562 [17] = assay: Cytotoxic activity on K-562 erythroleukemia cell line suspension in 5% foetal calf serum (FCS) at 4*10e-4 M concentration after 24 hr
K562 [18] = assay: Cytotoxic activity on K-562 erythroleukemia cell line suspension in 5% foetal calf serum (FCS) at 4*10e-5 M concentration after 1 hr
K562 [19] = assay: Cytotoxic activity on K-562 erythroleukemia cell line suspension in 5% foetal calf serum (FCS) at 4*10e-5 M concentration after 24 hr
K562 [20] = assay: Cytotoxic activity on K-562 erythroleukemia cell line suspension in 5% foetal calf serum (FCS) at 4*10e-5 M concentration after 2 hr

CCCCCCCCCCCCCCCCCCSP(O)(=S)O[C@@H]1[C@@H](O)[C@H](O)[C@@H](O)[C@H](O)[C@@H]1O (stereo not given in full)
Dead cells (K562 [1]): 13.3% | Dead cells (K562 [2]): 22.5% | Dead cells (K562 [3]): 16.8% and 45.9% | Dead cells (K562 [4]): 48.9% | Dead cells (K562 [5]): 96.2% | Dead cells (K562 [6]): 52.52% | Dead cells (K562 [7]): 18.4% | Dead cells (K562 [8]): 40% | Dead cells (K562 [9]): 22.7% | Dead cells (K562 [10]): 13.3% | Dead cells (K562 [11]): 23.3% | Dead cells (K562 [12]): 16.6% | Dead cells (K562 [13]): 14% | Dead cells (K562 [14]): 27.2% | Dead cells (K562 [15]): 18.2% | Dead cells (K562 [16]): 48.2% | Dead cells (K562 [17]): 71.1% | Dead cells (K562 [18]): 15.5% | Dead cells (K562 [19]): 24.4% | Dead cells (K562 [20]): 17%
